Test: Accelerated blood clearance (ABC) effect, hEPO serum PK after multiple LNP injections (ELISA)
Format: in vivo, C57BL/6J mice
Conditions: PCB-LNP containing the lipid; intravenous, 5 μg mRNA; third injection; compared to MC3 formulations
Procedure: Accelerated blood clearance (ABC) effect has been reported in cases where LNPs were injected multiple times with rapid clearance of LNPs observed in the subsequent injections. […] In this example, PCB-LNP containing ZW-B-CBn from Example 7 were used to study the ABC effect of LNPs. MC3-based PEG-LNP from Example 2 was used as a control.
For in vivo pharmacokinetic (PK) study, male C57BL/6J mice aged 3-4 weeks in groups of three were administered intravenously with mRNA-LNP at a dosage of 5 μg of mRNA. Two different injection cohorts were performed. (FIG. 15a) In cohort 1, only one dose of hEPO-mRNA (human erythropoietin mRNA) was given. In cohort 2, Fluc-mRNA ([…]) was dosed for the first two injections, and hEPO-mRNA for the last injection. (FIG. 15a) Cohort 2 was designed in a way to eliminate anti-hEPO immune response induced from first two injections, and thereby the PK profile of hEPO in the third injection is mainly indicating the ABC effect due to LNP components. To determine the PK profile of hEPO, mice sera were collected at 6-hour, 24-hour post-injection, and analyzed using ELISA (DuoSet, hEPO ELISA kit, R&D).

Compound | ABC effect (hEPO serum concentration, injection cohort 2 versus cohort 1)
CCCCCCCCCOC(=O)CCCCCCCN(CCCCCCCC(=O)OC(CCCCCCCC)CCCCCCCCC)CC(=O)O (centres unmarked) [ZW-B-CB1, N-(8-(nonyloxy)-8-oxooctyl)-N-(8-(octadecan-9-yloxy)-8-oxooctyl)glycine] | less ABC effect
CCCCCCCCCOC(=O)CCCCCCCN(CCCCCCCC(=O)OC(CCCCCCCC)CCCCCCCCC)CCC(=O)O (centres unmarked) [ZW-B-CB2, 3-((8-(nonyloxy)-8-oxooctyl)(8-(octadecan-9-yloxy)-8-oxooctyl)amino)propanoic acid] | less ABC effect
